Several values for one entry are separate records, joined by “and”; a condition that tells them apart may be missing. Equal values may be shown once. Toxic doses and inconclusive results are not listed. No stated cut-off is given here; in the data, active means T/C of 150% or more; inactive means T/C below 125%.
Test system: L1210 leukemia ip in BDF1 mice, survival T/C
Test: NCI In Vivo Anticancer Drug Screen. Data for tumor model L1210 Leukemia (intraperitoneal) in B6D2F1 (BDF1) mice
Conditions: endpoint: mean survival time, higher = longer survival
Outline: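 Tumor cells were implanted, animals were treated, and survival was followed. The result divides the treated measurement by the vehicle-control measurement.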

[1] = dose: 100.0 mg/kg/injection, schedule: Q01DX001 (ip), vehicle: saline
[2] = dose: 200.0 mg/kg/injection, schedule: Q01DX001 (ip), vehicle: saline
[3] = dose: 400.0 mg/kg/injection, schedule: Q01DX001 (ip), vehicle: saline
[4] = dose: 100.0 mg/kg/injection, schedule: Q01DX009 (ip), vehicle: Klucel (hydroxypropylcellulose) (HPC)
[5] = dose: 200.0 mg/kg/injection, schedule: Q01DX009 (ip), vehicle: Klucel (hydroxypropylcellulose) (HPC)
[6] = dose: 100.0 mg/kg/injection, schedule: Q01DX009 (ip), vehicle: saline
[7] = dose: 100.0 mg/kg/injection, schedule: Q04DX003 (ip), vehicle: acetone
[8] = dose: 200.0 mg/kg/injection, schedule: Q01DX009 (ip), vehicle: saline
[9] = dose: 200.0 mg/kg/injection, schedule: Q04DX003 (ip), vehicle: acetone
[10] = dose: 400.0 mg/kg/injection, schedule: Q01DX009 (ip), vehicle: saline
[11] = dose: 400.0 mg/kg/injection, schedule: Q04DX003 (ip), vehicle: acetone
[12] = dose: 100.0 mg/kg/injection, schedule: Q01DX009 (ip), vehicle: saline with Tween-80
[13] = dose: 200.0 mg/kg/injection, schedule: Q01DX009 (ip), vehicle: saline with Tween-80
[14] = dose: 100.0 mg/kg/injection, schedule: Q04DX003 (ip), vehicle: saline
[15] = dose: 200.0 mg/kg/injection, schedule: Q04DX003 (ip), vehicle: saline
[16] = dose: 400.0 mg/kg/injection, schedule: Q04DX003 (ip), vehicle: saline

Measured: T/C

CS(=O)(=O)Nc1nc2ccccc2s1
inactive: dose: 100.0 mg/kg/injection, schedule: Q04DX003 (ip), vehicle: carboxymethylcellulose (CMC) 98 % of control | dose: 200.0 mg/kg/injection, schedule: Q04DX003 (ip), vehicle: carboxymethylcellulose (CMC) 98 % of control | dose: 400.0 mg/kg/injection, schedule: Q04DX003 (ip), vehicle: carboxymethylcellulose (CMC) 97 % of control

Cn1c(=O)c2c(nc(OCC3CC4CCC3C4)n2C)n(C)c1=O (stereo unspecified)
inactive: [1] 96 % of control | [2] 108 % of control | [3] 108 % of control

O=c1[nH]c2cnccc2c(=O)n1OS(=O)(=O)c1ccccc1
inactive: dose: 50.0 mg/kg/injection, schedule: Q01DX009 (ip), vehicle: Klucel (hydroxypropylcellulose) (HPC) 90 % of control | [4] 90 % of control | [5] 97 % of control

ClC1=CC2CCC(C2)C1Cl (stereo unspecified)
inactive: [6] 106 % of control | [7] 88 % of control | [8] 102 % of control | [9] 88 % of control | [10] 103 % of control | [11] 90 % of control

NCC(=O)c1c[nH]c(=O)[nH]c1=O
inactive: dose: 25.0 mg/kg/injection, schedule: Q01DX001 (ip), vehicle: saline 107 % of control | dose: 50.0 mg/kg/injection, schedule: Q01DX001 (ip), vehicle: saline 100 % of control | [1] 97 % of control and 102 % of control | [2] 115 % of control | [3] 102 % of control

CN(C)N=Nc1cc(Cl)cc(C(N)=O)c1Cl
inactive: dose: 100.0 mg/kg/injection, schedule: Q01DX001 (ip), vehicle: saline with Tween-80 106 % of control | [12] 103 % of control | dose: 200.0 mg/kg/injection, schedule: Q01DX001 (ip), vehicle: saline with Tween-80 101 % of control | [13] 121 % of control | dose: 400.0 mg/kg/injection, schedule: Q01DX001 (ip), vehicle: saline with Tween-80 119 % of control

C/C=C/C(=O)Nc1ccccc1F
inactive: [4] 93 % of control | [5] 103 % of control

CCOC(=O)c1[nH]c(=S)n(-c2ccccc2)c1C(=O)OCC
inactive: dose: 100.0 mg/kg/injection, schedule: Q01DX001 (ip), vehicle: other 97 % of control | dose: 100.0 mg/kg/injection, schedule: Q01DX009 (ip), vehicle: other 94 % of control and 95 % of control | dose: 100.0 mg/kg/injection, schedule: Q04DX002 (ip), vehicle: other 93 % of control and 87 % of control | dose: 200.0 mg/kg/injection, schedule: Q01DX001 (ip), vehicle: other 108 % of control | dose: 200.0 mg/kg/injection, schedule: Q01DX009 (ip), vehicle: other 94 % of control and 115 % of control | dose: 200.0 mg/kg/injection, schedule: Q04DX002 (ip), vehicle: other 96 % of control and 97 % of control | dose: 400.0 mg/kg/injection, schedule: Q01DX001 (ip), vehicle: other 103 % of control | dose: 400.0 mg/kg/injection, schedule: Q01DX009 (ip), vehicle: other 112 % of control and 90 % of control | dose: 400.0 mg/kg/injection, schedule: Q04DX002 (ip), vehicle: other 93 % of control and 114 % of control

CCCCCCCCCC(=O)N/N=C/c1cccc([N+](=O)[O-])c1
inactive: [12] 97 % of control | [13] 91 % of control | dose: 400.0 mg/kg/injection, schedule: Q01DX009 (ip), vehicle: saline with Tween-80 100 % of control

CC(CO)CCC1OC2CC3C4CCC5CC(O)CCC5(C)C4CCC3(C)C2C1C (stereo unspecified)
inactive: dose: 100.0 mg/kg/injection, schedule: Q04DX002 (ip), vehicle: Klucel (hydroxypropylcellulose) (HPC) 86 % of control | dose: 200.0 mg/kg/injection, schedule: Q04DX002 (ip), vehicle: Klucel (hydroxypropylcellulose) (HPC) 95 % of control | dose: 400.0 mg/kg/injection, schedule: Q04DX002 (ip), vehicle: Klucel (hydroxypropylcellulose) (HPC) 95 % of control

CC1=C/C(=N/Nc2ccc([N+](=O)[O-])cc2[N+](=O)[O-])CCC1
inactive: dose: 50.0 mg/kg/injection, schedule: Q01DX009 (ip), vehicle: acetone 93 % of control | dose: 100.0 mg/kg/injection, schedule: Q01DX009 (ip), vehicle: acetone 88 % of control | [7] 93 % of control | [9] 86 % of control | [11] 86 % of control

CCOC(=O)c1cn(C2OC(COC(C)=O)C(OC(C)=O)C2OC(C)=O)c2nc(SC)nc(NC(C)=O)c2c1=O (stereo unspecified)
inactive: dose: 100.0 mg/kg/injection, schedule: Q01DX005 (ip), vehicle: saline 97 % of control | dose: 200.0 mg/kg/injection, schedule: Q01DX005 (ip), vehicle: saline 91 % of control

c1nc2c([nH]1)CNCC2
inactive: [6] 94 % of control | [14] 100 % of control | [8] 93 % of control | [15] 98 % of control | [10] 94 % of control | [16] 108 % of control

S=C(NCCCN1Cc2ccccc2C1)Nc1ccccc1
inactive: [1] 96 % of control | [2] 104 % of control | [3] 96 % of control

N/N=C(\N)N(Cc1ccccc1)c1ccccc1
inactive: dose: 7.5 mg/kg/injection, schedule: Q01DX001 (ip), vehicle: saline 94 % of control | dose: 7.5 mg/kg/injection, schedule: Q01DX009 (ip), vehicle: saline 96 % of control | dose: 7.5 mg/kg/injection, schedule: Q04DX003 (ip), vehicle: saline 97 % of control | dose: 15.0 mg/kg/injection, schedule: Q01DX001 (ip), vehicle: saline 92 % of control | dose: 15.0 mg/kg/injection, schedule: Q01DX009 (ip), vehicle: saline 94 % of control | dose: 15.0 mg/kg/injection, schedule: Q04DX003 (ip), vehicle: saline 95 % of control | dose: 30.0 mg/kg/injection, schedule: Q01DX001 (ip), vehicle: saline 100 % of control | dose: 30.0 mg/kg/injection, schedule: Q01DX009 (ip), vehicle: saline 102 % of control | dose: 30.0 mg/kg/injection, schedule: Q04DX003 (ip), vehicle: saline 97 % of control

CSc1ccc(C(=O)CCl)c(C)c1
inactive: dose: 50.0 mg/kg/injection, schedule: Q01DX001 (ip), vehicle: carboxymethylcellulose (CMC) 94 % of control

C[C@]12CC[C@H]3[C@@H](CC[C@]4(O)C[C@@H](O)CC[C@]34/C=N/O)[C@@]1(O)CC[C@@H]2C1=COC(=O)C1
inactive: dose: 1.87 mg/kg/injection, schedule: Q01DX009 (ip), vehicle: carboxymethylcellulose (CMC) 93 % of control | dose: 3.75 mg/kg/injection, schedule: Q01DX009 (ip), vehicle: carboxymethylcellulose (CMC) 104 % of control | dose: 7.5 mg/kg/injection, schedule: Q01DX009 (ip), vehicle: carboxymethylcellulose (CMC) 106 % of control | dose: 30.0 mg/kg/injection, schedule: Q01DX009 (ip), vehicle: carboxymethylcellulose (CMC) 104 % of control | dose: 60.0 mg/kg/injection, schedule: Q01DX009 (ip), vehicle: carboxymethylcellulose (CMC) 93 % of control

CCOC(=S)c1ccc(S(=O)(=O)NC)cc1
inactive: dose: 100.0 mg/kg/injection, schedule: Q01DX001 (ip), vehicle: Klucel (hydroxypropylcellulose) (HPC) 109 % of control | dose: 200.0 mg/kg/injection, schedule: Q01DX001 (ip), vehicle: Klucel (hydroxypropylcellulose) (HPC) 100 % of control | dose: 400.0 mg/kg/injection, schedule: Q01DX001 (ip), vehicle: Klucel (hydroxypropylcellulose) (HPC) 110 % of control

CC1CNC(=O)O1 (stereo unspecified)
inactive: dose: 25.0 mg/kg/injection, schedule: Q01DX009 (ip), vehicle: saline 97 % of control | dose: 50.0 mg/kg/injection, schedule: Q01DX009 (ip), vehicle: saline 97 % of control | dose: 50.0 mg/kg/injection, schedule: Q04DX003 (ip), vehicle: saline 106 % of control | [6] 98 % of control | dose: 100.0 mg/kg/injection, schedule: Q04DX002 (ip), vehicle: saline 100 % of control | [14] 106 % of control | [8] 95 % of control | dose: 200.0 mg/kg/injection, schedule: Q04DX002 (ip), vehicle: saline 91 % of control | [15] 101 % of control | [10] 95 % of control | dose: 400.0 mg/kg/injection, schedule: Q04DX002 (ip), vehicle: saline 91 % of control | [16] 100 % of control

CC(=O)OC1CC2CCC3C4CC=C(C(C)=O)C4(C)CCC3C2(C)CC1OC(C)=O (stereo unspecified)
inactive: dose: 75.0 mg/kg/injection, schedule: Q04DX003 (ip), vehicle: other 97 % of control | dose: 150.0 mg/kg/injection, schedule: Q04DX003 (ip), vehicle: other 97 % of control | dose: 300.0 mg/kg/injection, schedule: Q04DX003 (ip), vehicle: other 94 % of control
